Columns and labels:
Type in all cases: cell-based
DU-145 = experiment: Cell growth inhibition assay, prostate cancer cell line DU-145; settings: Homo sapiens, DU-145 prostate cancer cell line
Procedure: (§1) The inhibitory effects of the compounds of the present invention against the growth of cancer cells were evaluated as shown below. The cancer cell lines including stomach cancer cell line (AGS), breast cancer cell lines (MDA-MB-231, MDA-MB-468, and BT-549), prostate cancer cell lines (LNCaP and DU-145), colon cancer cell line (HCT116), ovarian cancer cell line (SW626), liver cancer cell line (Hep3B), kidney cancer cell line (ACHN), lung cancer cell line (NCI-H23) and blood cancer cell lines (HEL92.1.7 and U266) were cultured under the protocol provided by each supplier. A medium supplemented with 10 ng/mL of IL-6 was used for LNCaP, a prostate cancer cell line, when treated with a drug. Each type of cells to be used in experiments were sub-cultured in a 96-well plate by counting the exact number of cells using Tali™ Image-based Cytometer (Life Technologies). In a 96-well plate, AGS, HCT116, and DU-145 were employed with 3,000 cells/well; NCI-H23, SW626, Hep3B, ACHN, BT-549, MDA-MB-231, HEL92.1.7, and U266 were employed with 5,000 cells/well; and LNCaP and MDA-MB-468 were employed with 10,000 cells/well. The cells were treated with the compounds listed in Examples which were diluted in various concentrations. Upon completion of the compounds treatment, AGS, HCT116, SW626, DU145, NCI-H23, Hep3B, ACHN, BT-549, LNCaP, HEL92.1.7, and U266 cells were cultured at 37° C. under 5% CO2 for from 72 to 96 hours, and MDA-MB-231 and MDA-MB-468 cells were cultured at 37° C. in air for from 72 to 96 hours. Subsequently, the cells were observed under microscope and drug precipitation and particular findings were investigated and recorded. And then, the 96-well plate was placed at room temperature for 30 minutes, added with 20 μL/well of CellTiter-Glo solution (Cat No. G7573, Promega) and shaken for 10 minutes, followed by being subjected to the measurement using PHERAstar™ microplate reader (BMG LABTECH) according to the supplier's general luminometer protocol. Wells where only culture liquid added without cell plating were used as a negative control, whereas wells where culture liquid containing 0.1% DMSO instead of the compounds listed in Examples were used as a positive control.

LNCaP = experiment: Cell growth inhibition assay, prostate cancer cell line LNCaP (medium with 10 ng/mL IL-6); settings: Homo sapiens, medium supplemented with 10 ng/mL of IL-6, 10,000 cells/well
Procedure: as §1

STAT3 = target: T1, STAT3 (Homo sapiens, UniProt P40763); experiment: STAT3 reporter gene assay (luciferase), LNCaP stable cell line (pSTAT3-TA-luc), IL-6 stimulation
T1 construct: plasmid pSTAT3-TA-luc), which contains a stably operating STAT3 promoter; endogenous in cells
T1 sequence (P40763 whole entry): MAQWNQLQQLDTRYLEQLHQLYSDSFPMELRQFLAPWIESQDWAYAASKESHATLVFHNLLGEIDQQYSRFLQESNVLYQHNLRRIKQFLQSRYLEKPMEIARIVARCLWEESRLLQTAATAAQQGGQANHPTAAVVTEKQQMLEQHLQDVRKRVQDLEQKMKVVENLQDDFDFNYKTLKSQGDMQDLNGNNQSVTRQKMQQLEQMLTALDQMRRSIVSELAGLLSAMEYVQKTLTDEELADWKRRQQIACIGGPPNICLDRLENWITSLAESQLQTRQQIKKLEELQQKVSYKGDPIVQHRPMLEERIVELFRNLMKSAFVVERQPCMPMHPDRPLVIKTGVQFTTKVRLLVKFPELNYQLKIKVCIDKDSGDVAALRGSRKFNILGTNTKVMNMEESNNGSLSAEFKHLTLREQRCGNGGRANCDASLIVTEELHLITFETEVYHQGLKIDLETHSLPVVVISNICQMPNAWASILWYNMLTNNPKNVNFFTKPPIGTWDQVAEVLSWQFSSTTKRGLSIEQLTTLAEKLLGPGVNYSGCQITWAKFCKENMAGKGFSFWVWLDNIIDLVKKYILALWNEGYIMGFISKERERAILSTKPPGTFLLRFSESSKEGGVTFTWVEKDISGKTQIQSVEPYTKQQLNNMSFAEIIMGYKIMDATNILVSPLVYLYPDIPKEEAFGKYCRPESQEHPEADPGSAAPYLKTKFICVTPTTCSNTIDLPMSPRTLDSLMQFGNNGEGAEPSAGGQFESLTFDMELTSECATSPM
Procedure: 1-1) Experiment on the Inhibition of STAT3 Activity
A human prostate cancer cell line (LNCaP stable cell line; plasmid pSTAT3-TA-luc), which contains a stably operating STAT3 promoter, was cultured in RPMI1640 medium (Cat No. 11875, Life Technologies) containing 10% fetal bovine serum (FBS) (Cat No. SH30396, Thermo Scientific) and 150 μg/mL G-418 solution (Cat No. 04 727 894 001, Roche). The reporter gene assay using LNCaP stable cell line was performed in RPMI1640 medium containing 3% DCC-FBS without G-418 solution. LNCaP stable cells were plated in two (2) white 96-well plates with 30,000 cells/50 μL in each well. The cells were cultured at 37° C., under 5% CO2 for 24 hours, and then treated with the compounds listed in Examples which were diluted in various concentrations. Subsequently, IL-6 was added to each well with a final concentration of 10 ng/mL. Upon completion of the treatment with the compounds and IL-6, the cells were cultured at 37° C., under 5% CO2 for from 24 to 48 hours. The plates were observed under microscope and drug precipitation and particular findings were investigated and recorded.
The luciferase assay and the cell viability assay were performed respectively with one of the two plates. For the luciferase assay, the liquid media in the 96-well plate was removed, and then, 20 μL of passive cell lysis buffer was added to each well. After shaking the plate for 30 minutes, luciferase activities of each well were measured in a PHERAstar™ microplate reader (BMG LABTECH) using a luciferase assay system (Cat No. E1501, Promega). For the cell viability assay, the 96-well plate was placed at room temperature for 30 minutes, added with 20 μL/well of CellTiter-Glo solution (Cat No. G7573, Promega), and shaken for 10 minutes in order to measure cytotoxicity caused by the compounds listed in Examples with a PHERAstar™ microplate reader (BMG LABTECH). Wells without 0.1% DMSO and stimulation were used as a negative control and wells with 0.1% DMSO and stimulation were used as a positive control.

SMILES | IC50 (DU-145) | IC50 (LNCaP) | IC50 (STAT3)
CC(C)Oc1cc(CN2CCC3(CC2)COC3)cc(C(C)(C)c2cc(Cl)cc(NC(=O)c3cc4cc(NS(C)(=O)=O)ccc4s3)c2)c1 [Example 134, N-(3-(2-(3-((2-oxa-7-azaspiro[3,5]nonan-7-yl)methyl)-5-isopropoxyphenyl)propan-2-yl)-5-chlorophenyl)-5-(methylsulfonamido)benzo[b]thiophene-2-carboxamide] | 0.16 µM | 0.84 µM | 0.27 µM
CC(C)Oc1cc(CN2CCN(c3nnc(C(C)C)o3)CC2)cc(C(C)(C)c2cc(Cl)cc(NC(=O)c3cc4cc(NS(C)(=O)=O)ccc4s3)c2)c1 [Example 135, N-(3-chloro-5-(2-(3-isopropoxy-5-((4-(5-isopropyl-1,3,4-oxadiazol-2-yl)piperazin-1-yl)methyl)phenyl)propan-2-yl)phenyl)-5-(methylsulfonamido)benzo[b]thiophene-2-carboxamide] | 0.3 µM | 0.85 µM | 0.14 µM
CC(C)Oc1cc(CN2CCN(c3noc(C(C)C)n3)CC2)cc(C(C)(C)c2cc(F)cc(NC(=O)c3cc4cc(NS(C)(=O)=O)ccc4s3)c2)c1 [Example 136, N-(3-fluoro-5-(2-(3-isopropoxy-5-((4-(5-isopropyl-1,2,4-oxadiazol-3-yl)piperazin-1-yl)methyl)phenyl)propan-2-yl)phenyl)-5-(methylsulfonamido)benzo[b]thiophene-2-carboxamide] | 0.051 µM | 0.38 µM | 0.059 µM
CC(C)Oc1cc(CN2CCOCC2)cc(C(C)(C)c2cc(F)cc(NC(=O)c3cc4cc(NS(C)(=O)=O)ccc4s3)c2)c1 [Example 137, N-(3-fluoro-5-(2-(3-isopropoxy-5-(morpholinomethyl)phenyl)propan-2-yl)phenyl)-5-(methylsulfonamido)benzo[b]thiophene-2-carboxamide] | 0.1 µM | 0.4 µM | 0.22 µM
Cn1nccc1-c1ccc(C(C)(C)c2cc(Cl)cc(NC(=O)c3cc4cc(NS(C)(=O)=O)ccc4s3)c2)cc1 [Example 159, N-(3-chloro-5-(2-(4-(1-methyl-1H-pyrazol-5-yl)phenyl)propan-2-yl)phenyl)-5-(methylsulfonamido)benzo[b]thiophene-2-carboxamide] | 0.14 µM | 0.16 µM | 0.31 µM
C[S+]([O-])c1ccc(C(C)(C)c2cc(Cl)cc(NC(=O)c3cc4cc(NS(C)(=O)=O)ccc4s3)c2)cc1 (stereo not drawn) [Example 160, N-(3-chloro-5-(2-(4-(methylsulfinyl)phenyl)propan-2-yl)phenyl)-5-(methylsulfonamido)benzo[b]thiophene-2-carboxamide] | > 1.1 µM | > 1.1 µM | 3.3 µM
CC(C)(c1ccc(S(C)(=O)=O)cc1)c1cc(Cl)cc(NC(=O)c2cc3cc(NS(C)(=O)=O)ccc3s2)c1 [Example 161, N-(3-chloro-5-(2-(4-(methylsulfonyl)phenyl)propan-2-yl)phenyl)-5-(methylsulfonamido)benzo[b]thiophene-2-carboxamide] | 0.72 µM | > 1.1 µM | > 10 µM
CC(C)(c1cc(Cl)cc(NC(=O)c2cc3cc(NS(C)(=O)=O)c(Cl)cc3s2)c1)N1CCCCC1 [Example 165, 6-chloro-N-(3-chloro-5-(2-(piperidin-1-yl)propan-2-yl)phenyl)-5-(methylsulfonamido)benzo[b]thiophene-2-carboxamide] | 0.07 µM | 0.11 µM | 0.13 µM
CC(C)(c1cc(Cl)cc(NC(=O)c2cc3cc(NS(C)(=O)=O)ccc3s2)c1)c1cccs1 [Example 170, N-(3-chloro-5-(2-(thiophen-2-yl)propan-2-yl)phenyl)-5-(methylsulfonamido)benzo[b]thiophene-2-carboxamide] | 0.005 µM | 0.059 µM | 0.068 µM
CC(C)(c1ccsc1)c1cc(Cl)cc(NC(=O)c2cc3cc(NS(C)(=O)=O)ccc3s2)c1 [Example 171, N-(3-chloro-5-(2-(thiophen-3-yl)propan-2-yl)phenyl)-5-(methylsulfonamido)benzo[b]thiophene-2-carboxamide] | 0.038 µM | 0.071 µM | 0.074 µM
CC(C)(c1ccc(Cl)cc1)c1cc(Cl)cc(NC(=O)c2cc3cc(NS(C)(=O)=O)c(Cl)cc3s2)c1 [Example 172, 6-chloro-N-(3-chloro-5-(2-(4-chlorophenyl)propan-2-yl)phenyl)-5-(methylsulfonamido)benzo[b]thiophene-2-carboxamide] | 0.005 µM | 0.009 µM | 0.016 µM
CC(C)(c1ccc(Cl)cc1)c1cc(Cl)cc(NC(=O)c2cc3cc(NS(C)(=O)=O)c(Br)cc3s2)c1 [Example 173, 6-bromo-N-(3-chloro-5-(2-(4-chlorophenyl)propan-2-yl)phenyl)-5-(methylsulfonamido)benzo[b]thiophene-2-carboxamide] | 0.009 µM | 0.11 µM | 0.011 µM
CC(C)(c1cc(Cl)cc(NC(=O)c2cc3cc(NS(C)(=O)=O)ccc3s2)c1)c1ccc(Cl)s1 [Example 174, N-(3-chloro-5-(2-(5-chlorothiophen-2-yl)propan-2-yl)phenyl)-5-(methylsulfonamido)benzo[b]thiophene-2-carboxamide] | 0.033 µM | 0.091 µM | 0.1 µM
CC(C)(c1cc(Cl)cc(NC(=O)c2cc3cc(NS(C)(=O)=O)c(Cl)cc3s2)c1)c1ccc(Cl)s1 [Example 175, 6-chloro-N-(3-chloro-5-(2-(5-chlorothiophen-2-yl)propan-2-yl)phenyl)-5-(methylsulfonamido)benzo[b]thiophene-2-carboxamide] | 0.005 µM | 0.016 µM | 0.007 µM
COc1sccc1C(C)(C)c1cc(Cl)cc(NC(=O)c2cc3cc(NS(C)(=O)=O)ccc3s2)c1 [Example 176, N-(3-chloro-5-(2-(2-methoxythiophen-3-yl)propan-2-yl)phenyl)-5-(methylsulfonamido)benzo[b]thiophene-2-arboxamide] | 0.038 µM | 0.071 µM | 0.036 µM
COc1ccc(C(C)(C)c2cc(Cl)cc(NC(=O)c3cc4cc(NS(C)(=O)=O)ccc4s3)c2)s1 [Example 177, N-(3-chloro-5-(2-(5-methoxythiophen-2-yl)propan-2-yl)phenyl)-5-(methylsulfonamido)benzo[b]thiophene-2-carboxamide] | 0.058 µM | 0.089 µM | 0.047 µM
Cc1ccc(C(C)(C)c2cc(Cl)cc(NC(=O)c3cc4cc(NS(C)(=O)=O)ccc4s3)c2)s1 [Example 178, N-(3-chloro-5-(2-(5-methylthiophen-2-yl)propan-2-yl)phenyl)-5-(methylsulfonamido)benzo[b]thiophene-2-carboxamide] | 0.024 µM | 0.042 µM | 0.025 µM
Cc1ccc(C(C)(C)c2cc(Cl)cc(NC(=O)c3cc4cc(NS(C)(=O)=O)c(Cl)cc4s3)c2)s1 [Example 179, 6-chloro-N-(3-chloro-5-(2-(5-methylthiophen-2-yl)propan-2-yl)phenyl)-5-(methylsulfonamido)benzo[b]thiophene-2-carboxamide] | 0.004 µM | 0.007 µM | 0.004 µM

— US10562912B2 (C&C Research Laboratories, priority 2013, dated 2020)
